Test results published in patent publication US10000500B2 (PROMEGA CORPORATION, priority 2016, dated 2018).

These compounds were tested against NANOLUC® Luciferase (Oplophorus gracilirostris, UniProt Q9GV45, A31E/A60N/A81I/F95D/I117V/K70R/L54V/L99Q/M102K/N193R/P142E/Q151K/Q38R/Q45L/V71I/Y165I) (assay: Luminescence assay with purified NANOLUC luciferase (Example 7)). Details: bioluminescence with NANOLUC luciferase.
Assay type: biochemical
Protocol: Each compound to be screened was dissolved in DMSO (5 mM) and then further diluted to 100 uM in NANO-GLO® Luciferase Assay Buffer. Each diluted substrate was then combined in equal volumes with purified NANOLUC® Luciferase diluted into CO2 independent media+10% FBS. Initial light output for each substrate was measured in a GLOMAXI-Multi+luminometer three minutes after substrate addition and then at five minute intervals as a means to determine signal half-life.
The synthesized coelenterazine analogues (compounds of formula (I) and (II)) were evaluated for their suitability as luciferase substrates. NANOLUC® luciferase was employed for the screening because it is a small (19 kDa), stable, and particularly bright enzyme.

NANOLUC® Luciferase, sequence (Q9GV45 28-196 with tags or gaps with the stated changes limits assumed): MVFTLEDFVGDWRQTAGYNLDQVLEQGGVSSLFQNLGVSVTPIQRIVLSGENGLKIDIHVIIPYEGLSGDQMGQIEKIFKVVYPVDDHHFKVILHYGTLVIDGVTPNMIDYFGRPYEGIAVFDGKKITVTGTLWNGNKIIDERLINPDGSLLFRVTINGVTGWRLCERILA

Point of comparison: `O=c1c(Cc2ccco2)nc2c(-c3sccc3Cl)[nH]c(-c3ccccc3)cn1-2` [AS-282, 8-(3-chlorothiophen-2-yl)-2-(furan-2-ylmethyl)-6-phenylimidazo[1,2-a]pyrazin-3(7H)-one], “λmax, nm” value 505 nm. Against it:
- O=c1c(Cc2ccco2)nc2c(-c3ccccc3)[nH]c(-c3ccccc3)c(-c3ccccc3)n1-2 [AS-248, 2-(furan-2-ylmethyl)-5,6,8-triphenylimidazo[1,2-a]pyrazin-3(7H)-one] — higher, 520 nm
- O=c1c(Cc2ccco2)nc2c(-c3ccc(Cl)s3)[nH]c(-c3ccccc3)cn1-2 [AS-280, 8-(5-chlorothiophen-2-yl)-2-(furan-2-ylmethyl)-6-phenylimidazo[1,2-a]pyrazin-3(7H)-one] — higher, 523 nm
- O=c1c(Cc2ccco2)nc2c(-c3cccs3)[nH]c(-c3cccs3)cn1-2 [AS-176, 2-(furan-2-ylmethyl)-6,8-di(thiophen-2-yl)imidazo[1,2-a]pyrazin-3(7H)-one] — lower, 496 nm
- N#Cc1c(-c2ccccc2)[nH]c(-c2ccnc(F)c2)c2nc(Cc3ccco3)c(=O)n1-2 [AS-301, 8-(2-fluoropyridin-4-yl)-2-(furan-2-ylmethyl)-3-oxo-6-phenyl-3,7-dihydroimidazo[1,2-a]pyrazine-5-carbonitrile] — higher, 529 nm
- Nc1ccc(-c2cn3c(=O)c(Cc4ccco4)nc-3c(-c3ccnc4ccccc34)[nH]2)cc1 [AS-330, 6-(4-aminopheny1)-2-(furan-2-ylmethyl)-8-(quinolin-4-yl)imidazo[1,2-a]pyrazin-3(7H)-one] — higher, 583 nm
- N#Cc1ccc(-c2[nH]c(-c3ccc(N)cc3)cn3c(=O)c(Cc4ccco4)nc2-3)s1 [AS-332, 5-(6-(4-aminophenyl)-2-(furan-2-ylmethyl)-3-oxo-3,7-dihydroimidazo[1,2-a]pyrazin-8-yl)thiophene-2-carbonitrile] — higher, 598 nm
- O=c1c(Cc2ccco2)nc2c(C#Cc3ccccc3)[nH]c(-c3ccccc3)cn1-2 [AS-242, 2-(furan-2-ylmethyl)-6-phenyl-8-(phenylethynyl)imidazo[1,2-a]pyrazin-3(7H)-one] — higher, 517 nm
- Nc1ccc(-c2cn3c(=O)c(Cc4ccco4)nc-3c(-c3ccnc(Cl)c3)[nH]2)cc1 — higher, 571 nm
- Cn1cc(-c2[nH]c(-c3ccn(C)n3)cn3c(=O)c(Cc4ccco4)nc2-3)cn1 [AS-190, 2-(furan-2-ylmethyl)-6-(1-methyl-1H-pyrazol-3-yl)-8-(1-methyl-1H-pyrazol-4-yl)imidazo[1,2-a]pyrazin-3(7H)-one] — lower, 496 nm
- O=c1c(Cc2ccco2)nc2c(-c3ccsc3)[nH]c(-c3ccccc3)cn1-2 [AS-229, 2-(furan-2-ylmethyl)-6-phenyl-8-(thiophen-3-yl)imidazo[1,2-a]pyrazin-3(7H)-one] — lower, 496 nm
- O=c1c(Cc2ccco2)nc2c(-c3cccnc3Cl)[nH]c(-c3ccccc3)cn1-2 [AS-278, 8-(2-chloropyridin-3-yl)-2-(furan-2-ylmethyl)-6-phenylimidazo[1,2-a]pyrazin-3(7H)-one] — lower, 499 nm
- O=c1c(Cc2ccco2)nc2c(-c3cccs3)[nH]c(-c3ccccc3)cn1-2 [AS-236, 2-(furan-2-ylmethyl)-6-phenyl-8-(thiophen-2-yl)imidazo[1,2-a]pyrazin-3(7H)-one] — higher, 514 nm
- O=c1c(Cc2ccco2)nc2c(-c3ccnc(Br)c3)[nH]c(-c3ccccc3)cn1-2 [AS-314, 8-(2-bromopyridin-4-yl)-2-(furan-2-ylmethyl)-6-phenylimidazo[1,2-a]pyrazin-3(7H)-one] — higher, 538 nm
- O=c1c(Cc2ccco2)nc2c(-c3cccnc3F)[nH]c(-c3ccccc3)cn1-2 [AS-272, 8-(2-fluoropyridin-3-yl)-2-(furan-2-ylmethyl)-6-phenylimidazo[1,2-a]pyrazin-3(7H)-one] — higher, 508 nm
- O=c1c(Cc2ccco2)nc2c(-c3ccncc3)[nH]c(-c3ccccc3)cn1-2 [AS-276, 2-(furan-2-ylmethyl)-6-phenyl-8-(pyridin-4-yl)imidazo[1,2-a]pyrazin-3(7H)-one] — higher, 523 nm
- O=c1c(Cc2ccco2)nc2c(-c3ccc(F)cc3)[nH]c(-c3ccccc3)cn1-2 [AS-269, 8-(4-fluorophenyl)-2-(furan-2-ylmethyl)-6-phenylimidazo[1,2-a]pyrazin-3(7H)-one] — lower, 490 nm
- O=c1c(Cc2ccco2)nc2c(-c3ccnc(F)c3)[nH]c(-c3cccs3)cn1-2 [AS-306, 8-(2-fluoropyridin-4-yl)-2-(furan-2-ylmethyl)-6-(thiophen-2-yl)imidazo[1,2-a]pyrazin-3(7H)-one] — higher, 544 nm
- O=c1c(Cc2ccco2)nc2c(-c3ccc(F)nc3)[nH]c(-c3ccccc3)cn1-2 [AS-273, 8-(6-fluoropyridin-3-yl)-2-(furan-2-ylmethyl)-6-phenylimidazo[1,2-a]pyrazin-3(7H)-one] — lower, 496 nm
- Nc1cccc(-c2cn3c(=O)c(Cc4ccco4)nc-3c(Cc3ccccc3)[nH]2)c1 [JRW-0438, 6-(3-aminophenyl)-8-benzyl-2-(furan-2-ylmethyl)imidazo[1,2-a]pyrazin-3(7H)-one] — lower, 487 nm
- N#Cc1ccc(-c2[nH]c(-c3ccccc3)cn3c(=O)c(Cc4ccco4)nc2-3)cc1 [AS-237, 4-(2-(furan-2-ylmethyl)-3-oxo-6-phenyl-3,7-dihydroimidazo[1,2-a]pyrazin-8-yl)benzonitrile] — higher, 559 nm
- O=c1c(Cc2ccco2)nc2c(-c3cc(F)c(F)c(F)c3)[nH]c(-c3ccccc3)cn1-2 [AS-270, 2-(furan-2-ylmethyl)-6-pheny1-8-(3,4,5-trifluorophenyl)imidazo[1,2-a]pyrazin-3(7H)-one] — lower, 502 nm
- O=c1c(Cc2ccco2)nc2c(-c3ccnc(F)c3)[nH]c(-c3ccccc3)cn1-2 [AS-271, 8-(2-fluoropyridin-4-yl)-2-(furan-2-ylmethyl)-6-phenylimidazo[1,2-a]pyrazin-3(7H)-one] — higher, 532 nm
- O=c1c(Cc2ccco2)nc2c(-c3ccnc4ccccc34)[nH]c3c(n1-2)CCc1ccccc1-3 [AS-341, 2-(furan-2-ylmethyl)-12-(quinolin-4-yl)-5,11-dihydrobenzo[f]imidazo[1,2-a]quinoxalin-3(6H)-one] — higher, 583 nm
- O=c1c(Cc2ccco2)nc2c(-c3ccnc(Cl)c3)[nH]c3c(n1-2)CCc1ccccc1-3 [AS-342, 12-(2-chloropyridin-4-yl)-2-(furan-2-ylmethyl)-5,11-dihydrobenzo[f]imidazo[1,2-a]quinoxalin-3(6H)-one] — higher, 538 nm
- O=c1c(Cc2ccco2)nc2c(-c3ccco3)[nH]c(-c3ccco3)cn1-2 [AS-175, 6,8-di(furan-2-yl)-2-(furan-2-ylmethyl)imidazo[1,2-a]pyrazin-3(7H)-one] — higher, 514 nm
- Cn1c(C#N)ccc1-c1[nH]c(-c2ccccc2)cn2c(=O)c(Cc3ccco3)nc1-2 [AS-311, 5-(2-(furan-2-ylmethyl)-3-oxo-6-phenyl-3,7-dihydroimidazo[1,2-a]pyrazin-8-yl)-1-methyl-1H-pyrrole-2-carbonitrile] — the same, 505 nm
- O=c1c(Cc2ccco2)nc2c(-c3ccnc(Cl)c3)[nH]c(-c3ccccc3)cn1-2 [AS-275, 8-(2-chloropyridin-4-yl)-2-(furan-2-ylmethyl)-6-phenylimidazo[1,2-a]pyrazin-3(7H)-one] — higher, 535 nm
